Test results as given in PMC11111408, “Concurrent inhibition of oncogenic and wild-type RAS-GTP for cancer therapy” (Nature, 2024).
Where “and” joins values, the source holds several entries; their conditions need not be identical. Equal entries are not always repeated.

Experiments:
[1] = Body weight and tolerability of tumour bearing mice; details: for % Body Weight Change: 10 mg/kg po qd, 10 mg/kg
Procedure: All datapoints shown, n = 3 per dose and timepoint.
Female BALB/c nude mice, NOD SCID and NSG mice 6-8 weeks old from Beijing Vital River/VR Laboratory Animal Co., LTD, Beijing AniKeeper Biotech Co., Ltd., Shanghai Sino-British SIPPR/BK Laboratory Animal Co., LTD and The Jackson Laboratory were used. Animals were housed in polycarbonate cages, in an environmentally monitored, well ventilated room maintained at a constant temperature of 20-26°C and relative humidity of 40-80%. Fluorescent lighting provided illumination approximately 12 hours per day. Each mouse was inoculated at the right flank with tumor cells (2x10^6-1x10^7) in 100-200 µL of media/PBS supplemented with Matrigel (1:1). Treatments were started when the average tumor size reached 100-250 mm^3. […] Mice on studies were weighed and tumor measurements collected twice weekly. […] For efficacy study, Animals were assigned to study groups using stratified randomization based upon their tumor volumes (n=3-10/group). […] Animals were treated for 28 days (or up to 110 for selected models) or an earlier time if tumor burden reached humane endpoint. […] Body weights were collected twice a week during the study.

KRAS^G13D = KRAS^G13D (Homo sapiens, UniProt P01116+P62937, G13D); experiment: Cellular RAS–RAF (CRAF RBD) disruption, nano-BRET in U2OS cells; format: cell-based; details: (95% CI)
From the text: (§1) KRAS4B, or other small GTPases, containing the indicated mutations were cloned in pNLF-N or pHTN plasmids for expression with an N-terminal nanoluciferase or HaloTag fusion, respectively. […] The following day, the cells were collected by Trypsin and reseeded in a white tissue culture-treated 96-well plate in OptiMem phenol red-free medium (Gibco) containing 4% FBS and a 1:1,000 dilution of NanoBRET 618 HaloTag ligand (Promega). For endpoint concentration response curves, vivazine nanoluciferase substrate was added to 1× concentration in OptiMem phenol red-free medium with 4% FBS. Varying concentrations of inhibitor were added and incubated for 1 or 4 h before the nano-BRET signal was measured on a Perkin Elmer Envision plate reader. For kinetic assays, endurazine nanoluciferase substrate was used in place of vivazine, and the plate was placed in a Cytation5 multi-mode reader pre-equilibrated to 37 °C and 5% CO2.

HRAS WT = HRAS WT (Homo sapiens, UniProt P01112+P62937); experiment: RAS binding affinity of compound-bound CYPA (Kd2), SPR; details: steady state SPR, (95% CI)
NCI-H441 CDX tumours = experiment: NCI-H441 CDX efficacy study; format: in vivo, mouse; details: NCI-H441 model, 10 mg kg^−1 daily oral, 28 days
Procedure: Xenograft studies were conducted at GenenDesign, Pharmaron, Wuxi AppTec, the laboratory of P. Lito, and the laboratory of C. Ambrogio. […] All procedures related to animal handling, care and treatment were conducted in compliance with all applicable regulations and guidelines of the relevant Institutional Animal Care and Use Committee (IACUC). […] Experimental details are supplied in the Supplementary Methods.

KRAS^G12V [2] = molecular target: T1, KRAS^G12V (Homo sapiens, UniProt P01116+P62937, G12V); experiment: Cellular RAS–CYPA binding (tri-complex formation), nano-BRET in U2OS cells; format: cell-based; set-up: expressed in transfected cells; host or cells: U2OS PPIA-KO; details: for Cellular milliBRET signal between CYPA and KRAS G12V: KRASG12V, single replicates
From the text: as §1

KRAS^G12S = KRAS^G12S (Homo sapiens, UniProt P01116+P62937, G12S); experiment: as above; format: cell-based; set-up: expressed in transfected cells; host or cells: U2OS PPIA-KO; details: (95% CI)
From the text: as §1

[3] = test system: adagrasib-resistant NCI-H358 cells with secondary NRAS^Q61K mutation; experiment: Proliferation (CTG) and western blots of parental and adagrasib-resistant NCI-H358 (NRAS^Q61K); format: cell-based, human; details: NCI-H358 clone with concurrent NRAS^Q61K mutation
KRAS^G12R = KRAS^G12R (Homo sapiens, UniProt P01116+P62937, G12R); experiment: Cellular RAS–RAF (CRAF RBD) disruption, nano-BRET in U2OS cells; format: cell-based; set-up: expressed in transfected cells; host or cells: U2OS; details: (95% CI)
From the text: as §1

KRAS WT = KRAS WT (Homo sapiens, UniProt P01116+P62937); experiment: as above; format: cell-based; set-up: expressed in transfected cells; host or cells: U2OS; details: (95% CI)
From the text: as §1

KRAS^G12D = KRAS^G12D (Homo sapiens, UniProt P01116+P62937, G12D); experiment: as above; format: cell-based; set-up: expressed in transfected cells; host or cells: U2OS; details: (95% CI)
From the text: as §1

KRAS^G13C = KRAS^G13C (Homo sapiens, UniProt P01116+P62937, G13C); experiment: as above; format: cell-based; set-up: expressed in transfected cells; host or cells: U2OS; details: (95% CI)
From the text: as §1

KRAS^G12C = KRAS^G12C (Homo sapiens, UniProt P01116+P62937, G12C); experiment: as above; format: cell-based; set-up: expressed in transfected cells; host or cells: U2OS; details: (95% CI)
From the text: as §1

KRAS^G12A = KRAS^G12A (Homo sapiens, UniProt P01116+P62937, G12A); experiment: Cellular RAS–CYPA binding (tri-complex formation), nano-BRET in U2OS cells; format: cell-based; set-up: expressed in transfected cells; host or cells: U2OS or U2OS PPIA-KO; details: (95% CI)
From the text: as §1

KRAS^Q61H = KRAS^Q61H (Homo sapiens, UniProt P01116+P62937, Q61H); experiment: as above; format: cell-based; set-up: expressed in transfected cells; host or cells: U2OS or U2OS PPIA-KO; details: (95% CI)
From the text: as §1

GDP-bound KRAS(G12C) = molecular target: T2, GDP-bound KRAS(G12C) (Homo sapiens, UniProt P01116, G12C); experiment: SPR binding of RMC-7977–CYPA binary complex to GDP-bound KRAS; details: in vitro
T2 construct: His6-TEV (N); made in house; host or cells: E. coli BL21(DE3)

[4] = test system: NCI-H358 cells (CYPA-high, CYPA-low); experiment: pERK (MSD) in NCI-H358 cells with low or high CYPA; details: NCI-H358, doxycycline-inducible CYPA
From the text: NCI-H358 cells were transduced by lentivirus encoding Cas9, a guide RNA targeting PPIA (which encodes CYPA), and the puromycin resistance gene at WarpDrive Bio. Following puromycin selection, Flag–CYPA was introduced under the control of a tet-inducible promoter by lentivirus. Clones with high and low expression levels of Flag–CYPA were isolated at Revolution Medicines.

KRAS^G12V [5] = molecular target: T1, KRAS^G12V; experiment: RAS binding affinity of compound-bound CYPA (Kd2), SPR; set-up: His6-TEV (N); made in house; host or cells: BL21(DE3) Escherichia coli; details: steady state, (95% CI)

## CCn1c(-c2cc(N3CCN(C4CC4)CC3)cnc2[C@H](C)OC)c2c3cc(ccc31)-c1csc(n1)C[C@H](NC(=O)[C@H]1[C@@H]3COC[C@@H]31)C(=O)N1CCC[C@H](N1)C(=O)OCC(C)(C)C2 [RMC-7977]
[1]; NCI-H441 tumor bearing BALB/c nude mice, day 4, individual animals
  % Body Weight Change: -4.55% and -0.24% and 1.44% and 1.89% and -1.08% and 0.22% and -2.41% and 1.83%
[1]; NCI-H441 tumor bearing BALB/c nude mice, day 7, individual animals
  % Body Weight Change: -9.19% and -1.70% and 0.68% and 1.75% and -4.40% and -1.88% and -16.62% and -2.26%
[1]; NCI-H441 tumor bearing BALB/c nude mice, day 11, individual animals
  % Body Weight Change: -4.55% and -4.86% and 0.27% and 1.46% and -4.26% and -1.16% and -0.43% and 0.65%
[1]; NCI-H441 tumor bearing BALB/c nude mice, day 14, individual animals
  % Body Weight Change: -3.50% and -2.87% and 1.04% and 3.87% and -4.31% and -0.18% and -2.76% and -1.00%
[1]; NCI-H441 tumor bearing BALB/c nude mice, day 18, individual animals
  % Body Weight Change: -0.17% and 7.78% and -13.00% and 19.16% and -2.62% and 1.70% and -3.06% and 3.09%
[1]; NCI-H441 tumor bearing BALB/c nude mice, day 21, individual animals
  % Body Weight Change: -1.14% and -0.19% and 3.16% and 1.56% and -3.51% and 3.31% and -2.50% and 1.35%
[1]; NCI-H441 tumor bearing BALB/c nude mice, day 25, individual animals
  % Body Weight Change: -5.65% and 1.02% and 4.20% and 4.72% and -0.28% and 1.43% and -6.63% and 1.91%
[1]; NCI-H441 tumor bearing BALB/c nude mice, day 28, individual animals
  % Body Weight Change: -1.90% and 1.90% and 4.11% and 4.06% and 0.28% and 2.82% and -8.01% and 4.78%
[1]; PDAC G12D tumor bearing BALB/c nude mice, day 3, individual animals
  % Body Weight Change: -4.17%
[1]; PDAC G12D tumor bearing BALB/c nude mice, day 7, individual animals
  % Body Weight Change: -4.17%
[1]; PDAC G12D tumor bearing BALB/c nude mice, day 14, individual animals
  % Body Weight Change: -8.33%
[1]; PDAC G12D tumor bearing BALB/c nude mice, day 17, individual animals
  % Body Weight Change: -8.33%
[1]; PDAC G12D tumor bearing BALB/c nude mice, day 21, individual animals
  % Body Weight Change: -8.00% and 0.00%
[1]; PDAC G12D tumor bearing BALB/c nude mice, day 24, individual animals
  % Body Weight Change: -8.00%
[1]; PDAC G12D tumor bearing BALB/c nude mice, day 28, individual animals
  % Body Weight Change: 4.00%
[1]; all 15 KRAS^G12X xenograft models, 10 mg kg^−1
  effect on body weights: minimal effect on body weights
[1]; repeated daily administration at 10 mg kg^−1, NCI-H441 model
  tolerability: well tolerated
KRAS^G13D
  EC50: 15.4 nM
HRAS WT
  Kd: 94.7 nM
NCI-H441 CDX tumours
  mean tumour regression: 83%
KRAS^G12V [2]; RMC-7977 0.152 nM
  Cellular milliBRET signal between CYPA and KRAS G12V: 1.173 milliBRET and 1.06 milliBRET and 0.9358 milliBRET and 1.334 milliBRET and 1.012 milliBRET and 1.508 milliBRET
KRAS^G12V [2]; RMC-7977 0.457 nM
  Cellular milliBRET signal between CYPA and KRAS G12V: 1.649 milliBRET and 2.359 milliBRET and 1.781 milliBRET and 2.809 milliBRET and 1.779 milliBRET and 2.2094 milliBRET
KRAS^G12V [2]; RMC-7977 1.372 nM
  Cellular milliBRET signal between CYPA and KRAS G12V: 4.1167 milliBRET and 4.336 milliBRET and 3.9 milliBRET and 4.218 milliBRET and 4.578 milliBRET and 4.094 milliBRET
KRAS^G12V [2]; RMC-7977 4.115 nM
  Cellular milliBRET signal between CYPA and KRAS G12V: 7.461 milliBRET and 7.409 milliBRET and 7.89 milliBRET and 7.071 milliBRET and 7.622 milliBRET and 7.676 milliBRET
KRAS^G12V [2]; RMC-7977 12.346 nM
  Cellular milliBRET signal between CYPA and KRAS G12V: 11.4839 milliBRET and 11.5824 milliBRET and 12.0176 milliBRET and 11.1912 milliBRET and 11.5065 milliBRET and 11.1163 milliBRET
KRAS^G12V [2]; RMC-7977 37.037 nM
  Cellular milliBRET signal between CYPA and KRAS G12V: 13.6301 milliBRET and 14.0182 milliBRET and 13.661 milliBRET and 13.6725 milliBRET and 13.3211 milliBRET and 13.487 milliBRET
KRAS^G12V [2]; RMC-7977 111.111 nM
  Cellular milliBRET signal between CYPA and KRAS G12V: 14.1557 milliBRET and 14.0898 milliBRET and 14.0287 milliBRET and 13.9679 milliBRET and 13.745 milliBRET and 13.7924 milliBRET
KRAS^G12V [2]; RMC-7977 333.333 nM
  Cellular milliBRET signal between CYPA and KRAS G12V: 14.0834 milliBRET and 13.7044 milliBRET and 13.6567 milliBRET and 12.9685 milliBRET and 13.078 milliBRET and 12.7653 milliBRET
KRAS^G12V [2]; RMC-7977 1000.000 nM
  Cellular milliBRET signal between CYPA and KRAS G12V: 14.1055 milliBRET and 12.901 milliBRET and 13.6313 milliBRET and 12.8159 milliBRET and 14.3526 milliBRET and 13.1398 milliBRET
KRAS^G12V [2]; KRAS^G12V, nano-BRET, (95% CI)
  EC50: 2.25 nM
KRAS^G12S
  EC50: 2.24 nM
[3]
  RAS signalling and growth of adagrasib-resistant clone: inhibited RAS signalling and growth
KRAS^G12R
  EC50: 21.2 nM
KRAS WT
  EC50: 34.5 nM
KRAS^G12D
  EC50: 9.5 nM
KRAS^G13C
  EC50: 17.2 nM
KRAS^G12C
  EC50: 5.06 nM
KRAS^G12A
  EC50: 4.91 nM
KRAS^Q61H
  EC50: 5.75 nM
GDP-bound KRAS(G12C)
  binding of RMC-7977–CYPA binary complex to GDP-bound KRAS(G12C): No binding was observed
[4]
  sensitivity of CYPA-high versus CYPA-low cells, inhibition of signalling (pERK): threefold
KRAS^G12V [5]
  Kd: 85 nM
